Each molecule was assayed against Beta-secretase 1 (Homo sapiens, UniProt P56817) (assay: Inhibition of human BACE1 using MOCA-SEV-NL-DAEFR-DNP-RR as substrate measured after 2 hrs by FRET assay).
Sequence of Beta-secretase 1 (P56817 whole entry): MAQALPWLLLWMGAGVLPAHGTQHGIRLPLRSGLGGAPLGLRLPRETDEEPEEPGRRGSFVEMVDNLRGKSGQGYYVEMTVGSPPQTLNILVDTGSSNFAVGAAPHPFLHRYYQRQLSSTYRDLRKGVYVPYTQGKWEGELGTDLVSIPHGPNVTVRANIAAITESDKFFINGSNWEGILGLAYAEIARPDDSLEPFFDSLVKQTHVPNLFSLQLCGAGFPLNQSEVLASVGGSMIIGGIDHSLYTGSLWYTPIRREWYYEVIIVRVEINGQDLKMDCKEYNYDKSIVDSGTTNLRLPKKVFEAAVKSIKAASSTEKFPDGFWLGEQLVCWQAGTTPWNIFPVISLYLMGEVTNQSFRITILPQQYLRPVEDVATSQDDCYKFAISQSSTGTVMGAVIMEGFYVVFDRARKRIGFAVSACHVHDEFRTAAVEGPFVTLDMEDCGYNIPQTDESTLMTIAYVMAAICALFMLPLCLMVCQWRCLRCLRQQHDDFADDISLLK

Point of comparison: `C=C1C[C@H]2[C@]3(C)CCC(=O)C(C)(C)[C@@H]3C(=O)[C@@H](O)[C@]2(C)[C@H]2C(=O)O[C@@H](C)C(=O)[C@]12C`, IC50 5.85 µM. Against it:
- C=C1C[C@H]2[C@]3(C)CC[C@@H](O)C(C)(C)[C@H]3C(=O)[C@@H](O)[C@]2(C)[C@@H](C(=O)OC)[C@]1(C)C(=O)[C@](C)(O)C(=O)OC — higher, > 50 µM
- C=C1C[C@H]2[C@]3(C)CCC(=O)C(C)(C)[C@H]3C(=O)[C@@H](O)[C@]2(C)[C@H]2C(=O)O[C@](C)(C(=O)OC)C(=O)[C@]12C — higher, > 50 µM
- C=C1C[C@H]2[C@]3(C)CCC(=O)C(C)(C)[C@H]3C(=O)[C@@H](O)[C@]2(C)[C@H]2C(=O)O[C@](C)(C(=O)OCC)C(=O)[C@]12C — higher, > 50 µM
- C=C1C[C@H]2[C@]3(C)CCC(=O)C(C)(C)[C@H]3C(=O)[C@@H](O)[C@]2(C)[C@@H](C(=O)OC)[C@]1(C)C(=O)[C@](C)(O)C(=O)OC — higher, > 50 µM
- C=C1C[C@H]2[C@]3(C)CCC(=O)C(C)(C)[C@H]3C(=O)[C@@H](O)[C@]2(C)[C@H]2C(=O)O[C@@H](C)C(=O)[C@]12C — higher, > 50 µM
- C=C1C[C@H]2[C@]3(C)CCC(=O)C(C)(C)[C@H]3C(=O)C[C@]2(C)[C@]2(C(=O)OC)C(=O)[C@H](C)OC(=O)[C@]12C — higher, > 50 µM
- C=C1[C@@H]2O[C@@]23[C@]2(C)CCC(=O)C(C)(C)C2=C(O)C(=O)[C@]3(C)[C@H]2C(=O)O[C@](C)(C(=O)OC)C(=O)[C@]12C — higher, > 50 µM
- C=C1C[C@H]2[C@]3(C)CCC(=O)C(C)(C)[C@@H]3C(=O)[C@@H](O)[C@]2(C)[C@@H](C(=O)OC)[C@]1(C)C(=O)[C@](C)(O)C(=O)OC — 5.4-fold higher, 31.7 µM
- C=C1C[C@@]2(O)[C@]3(C)CCC(=O)C(C)(C)C3=C(O)C(=O)[C@]2(C)[C@H]2C(=O)O[C@](C)(C(=O)OC)C(=O)[C@]12C — higher, > 50 µM
- C=C1C[C@H]2[C@]3(C)CCC(=O)C(C)(C)[C@H]3C(=O)C[C@]2(C)[C@@H](C(=O)OC)[C@]1(C)C(=O)[C@](C)(O)C(=O)OC — higher, > 50 µM
- C=C1C[C@H]2[C@]3(C)CCC(=O)C(C)(C)[C@H]3CC[C@]2(C)[C@]2(C(=O)OC)C(=O)[C@@](C)(O)C(=O)[C@]12C — higher, > 50 µM
- C=C1C[C@@H]2[C@](C)(C(=O)C(O)=C3C(C)(C)C(=O)CC[C@]32C)[C@@H](C(=O)OC)[C@]1(C)C(=O)[C@](C)(O)C(=O)OC — higher, > 50 µM
- C=C1C[C@H]2[C@]3(C)CCC(=O)C(C)(C)[C@H]3C(=O)[C@@H](O)[C@]2(C)[C@@H]2C(=O)O[C@](C)(C(=O)OC)C(=O)[C@]12C — higher, > 50 µM
- C=C1C[C@@H]2[C@](C)(C(=O)C(O)=C3C(C)(C)C(=O)CC[C@]32C)[C@H]2C(=O)O[C@](C)(C(=O)OC)C(=O)[C@]12C — higher, > 50 µM
- C=C1C[C@H]2[C@]3(C)CCC(=O)C(C)(C)[C@@H]3C(=O)[C@@H](O)[C@]2(C)[C@H]2C(=O)O[C@](C)(C(=O)OC)C(=O)[C@]12C — 1.8-fold lower, 3.32 µM

— ChEMBL document CHEMBL4196203, “BACE1 Inhibitory Meroterpenoids from Aspergillus terreus” (J Nat Prod, 2018)
